Experimental data as given in PubChem BioAssay AID1918998 (Molecular Pharmacology Branch, DTP, NCI, 2023).
Where “and” joins values, the source holds several entries; their conditions need not be identical. Equal values may be shown once.

Test system: 521955-158-R2-J5-PDC complex spheroid growth
Experiment: Anticancer human tumor 521955-158-R2-J5-PDC patient-derived pancreatic carcinoma cell line growth inhibition [AhR]
Conditions: for viability, T/C: stronger effect = lower value
Outline: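 Agents were dosed in half-log steps down from roughly clinical Cmax, or from 10 microM where Cmax was unknown, alone and with AhR antagonists. Read-out: percent test/control growth of tumor spheroids containing HUVEC and MSC stromal cells.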

[1] = curve of first compound, second compound 0.1 µM
[2] = curve of first compound, second compound 0.316 µM
[3] = curve of first compound, second compound 1 µM
[4] = curve of first compound, second compound 3.16 µM
[5] = curve of first compound, second compound 10 µM
[6] = second compound 0.1 µM, first compound 0.0316 µM
[7] = second compound 0.1 µM, first compound 0.1 µM
[8] = second compound 0.1 µM, first compound 0.316 µM
[9] = second compound 0.1 µM, first compound 1 µM
[10] = second compound 0.1 µM, first compound 3.16 µM
[11] = second compound 0.1 µM, first compound 10 µM
[12] = second compound 0.316 µM, first compound 0.0316 µM
[13] = second compound 0.316 µM, first compound 0.1 µM
[14] = second compound 0.316 µM, first compound 0.316 µM
[15] = second compound 0.316 µM, first compound 1 µM
[16] = second compound 0.316 µM, first compound 3.16 µM
[17] = second compound 0.316 µM, first compound 10 µM
[18] = second compound 1 µM, first compound 0.0316 µM
[19] = second compound 1 µM, first compound 0.1 µM
[20] = second compound 1 µM, first compound 0.316 µM
[21] = second compound 1 µM, first compound 1 µM
[22] = second compound 1 µM, first compound 3.16 µM
[23] = second compound 1 µM, first compound 10 µM
[24] = second compound 3.16 µM, first compound 0.0316 µM
[25] = second compound 3.16 µM, first compound 0.1 µM
[26] = second compound 3.16 µM, first compound 0.316 µM
[27] = second compound 3.16 µM, first compound 1 µM
[28] = second compound 3.16 µM, first compound 3.16 µM
[29] = second compound 3.16 µM, first compound 10 µM
[30] = second compound 10 µM, first compound 0.0316 µM
[31] = second compound 10 µM, first compound 0.1 µM
[32] = second compound 10 µM, first compound 0.316 µM
[33] = second compound 10 µM, first compound 1 µM
[34] = second compound 10 µM, first compound 3.16 µM
[35] = second compound 10 µM, first compound 10 µM
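Throughout, for viability, T/C: spheroids mix tumor cells with HUVEC endothelium and human MSC stroma; luminescence taken as viability surrogate after a week of drug exposure.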

CC1COCCN1c1cc(C2(S(C)(=N)=O)CC2)nc(-c2ccnc3[nH]ccc23)n1 (stereo unspecified) + CC(CO)NC(=O)c1cc(-c2ccc(Cl)cc2)nn(-c2cnn(C)c2)c1=O
IC50 [1]: 2440 nM | IC50 [2]: 2220 nM | IC50 [3]: 2270 nM | IC50 [4]: 2250 nM | IC50 [5]: 1810 nM | viability, T/C [6]: 114% | viability, T/C [7]: 147% | viability, T/C [8]: 125% | viability, T/C [9]: 111% | viability, T/C [10]: 32.3% | viability, T/C [11]: 17.2% | viability, T/C [12]: 110% | viability, T/C [13]: 106% | viability, T/C [14]: 130% | viability, T/C [15]: 113% | viability, T/C [16]: 21.8% | viability, T/C [17]: 14.1% | viability, T/C [18]: 113% | viability, T/C [19]: 108% | viability, T/C [20]: 103% | viability, T/C [21]: 125% | viability, T/C [22]: 24.8% | viability, T/C [23]: 12.7% | viability, T/C [24]: 114% | viability, T/C [25]: 117% | viability, T/C [26]: 146% | viability, T/C [27]: 105% | viability, T/C [28]: 20.6% | viability, T/C [29]: 12.3% | viability, T/C [30]: 89.2% | viability, T/C [31]: 123% | viability, T/C [32]: 110% | viability, T/C [33]: 85% | viability, T/C [34]: 17.3% | viability, T/C [35]: 11.8%

CC(C)CC(NC(=O)C(Cc1ccccc1)NC(=O)c1cnccn1)B(O)O (stereo unspecified)
viability, T/C (compound 0.000949 µM): 93.7% and 85.5% and 84.3% | viability, T/C (compound 0.003 µM): 94.1% and 71.8% and 78.5% | viability, T/C (compound 0.03 µM): 1.41% and 1.04% and 0.32% | viability, T/C (compound 0.0949 µM): 0.32% and 0.33% and 0.22% | viability, T/C (compound 0.3 µM): 0.33% and 0.39% (2×) | IC50 (curve of compound): 16.5 nM and 13.1 nM and 4.71 nM

NS(=O)(=O)OCC1CC(n2ccc3c(NC4CCc5ccccc54)ncnc32)CC1O (stereo unspecified) + Cc1ccccc1N=Nc1ccc(NC(=O)c2ccnn2C)c(C)c1
IC50 [1]: 1360 nM | IC50 [2]: 1220 nM | IC50 [3]: 941 nM | IC50 [4]: 821 nM | IC50 [5]: 343 nM | viability, T/C [6]: 118% | viability, T/C [7]: 115% | viability, T/C [8]: 102% | viability, T/C [9]: 56.7% | viability, T/C [10]: 30.4% | viability, T/C [11]: 20.8% | viability, T/C [12]: 111% | viability, T/C [13]: 105% | viability, T/C [14]: 87.5% | viability, T/C [15]: 53.5% | viability, T/C [16]: 30.9% | viability, T/C [17]: 21.9% | viability, T/C [18]: 114% | viability, T/C [19]: 111% | viability, T/C [20]: 88.3% | viability, T/C [21]: 47.6% | viability, T/C [22]: 29.6% | viability, T/C [23]: 23.7% | viability, T/C [24]: 137% | viability, T/C [25]: 110% | viability, T/C [26]: 77.6% | viability, T/C [27]: 45.2% | viability, T/C [28]: 23.7% | viability, T/C [29]: 21.8% | viability, T/C [30]: 108% | viability, T/C [31]: 91.2% | viability, T/C [32]: 50.8% | viability, T/C [33]: 32.1% | viability, T/C [34]: 25.2% | viability, T/C [35]: 25.6%

O=C(C=Cn1cnc(-c2cc(C(F)(F)F)cc(C(F)(F)F)c2)n1)NNc1cnccn1 + Cc1cncc(-c2nc(NCCc3c[nH]c4ccccc34)c3ncn(C(C)C)c3n2)c1
IC50 [1]: 218 nM | IC50 [2]: 200 nM | IC50 [3]: 251 nM | IC50 [4]: 108 nM | IC50 [5]: < 9.49 nM | viability, T/C (second compound 0.1 µM, first compound 0.00949 µM): 65.6% | viability, T/C (second compound 0.1 µM, first compound 0.03 µM): 59.7% | viability, T/C (second compound 0.1 µM, first compound 0.0949 µM): 53.2% | viability, T/C (second compound 0.1 µM, first compound 0.3 µM): 51.5% | viability, T/C (second compound 0.1 µM, first compound 0.949 µM): 37.1% | viability, T/C (second compound 0.1 µM, first compound 3 µM): 26.3% | viability, T/C (second compound 0.316 µM, first compound 0.00949 µM): 76.1% | viability, T/C (second compound 0.316 µM, first compound 0.03 µM): 58.9% | viability, T/C (second compound 0.316 µM, first compound 0.0949 µM): 57.6% | viability, T/C (second compound 0.316 µM, first compound 0.3 µM): 49.3% | viability, T/C (second compound 0.316 µM, first compound 0.949 µM): 39.6% | viability, T/C (second compound 0.316 µM, first compound 3 µM): 29.1% | viability, T/C (second compound 1 µM, first compound 0.00949 µM): 74.5% | viability, T/C (second compound 1 µM, first compound 0.03 µM): 70% | viability, T/C (second compound 1 µM, first compound 0.0949 µM): 54.5% | viability, T/C (second compound 1 µM, first compound 0.3 µM): 49.4% | viability, T/C (second compound 1 µM, first compound 0.949 µM): 38.9% | viability, T/C (second compound 1 µM, first compound 3 µM): 24.9% | viability, T/C (second compound 3.16 µM, first compound 0.00949 µM): 78.7% | viability, T/C (second compound 3.16 µM, first compound 0.03 µM): 59.1% | viability, T/C (second compound 3.16 µM, first compound 0.0949 µM): 53.2% | viability, T/C (second compound 3.16 µM, first compound 0.3 µM): 36.8% | viability, T/C (second compound 3.16 µM, first compound 0.949 µM): 40.9% | viability, T/C (second compound 3.16 µM, first compound 3 µM): 23.8% | viability, T/C (second compound 10 µM, first compound 0.00949 µM): 38.3% | viability, T/C (second compound 10 µM, first compound 0.03 µM): 35.9% | viability, T/C (second compound 10 µM, first compound 0.0949 µM): 28.2% | viability, T/C (second compound 10 µM, first compound 0.3 µM): 24.7% | viability, T/C (second compound 10 µM, first compound 0.949 µM): 19.7% | viability, T/C (second compound 10 µM, first compound 3 µM): 19.8%
